Assay results as given in patent publication US20060217340A1, “Methods and products for treating hypertension by modulation of TRPC3 channel activity” (University of Vermont and State Agricultural College, priority 2005, published 2006).

Columns and labels:
[1] = system: smooth muscle cells isolated from sense- or antisense-treated cerebral arteries; test: Perforated patch clamp, UTP-activated whole-cell current; assay type: cell-based, rat; conditions: 30 μM UTP
Description: Patch clamp electrophysiology. Single smooth muscle cells were enzymatically isolated from sense- or antisense-treated cerebral arteries using an isolation solution of the following composition (in mM): 60 NaCl, 58 sodium glutamate, 5.6 KCl, 2 MgCl2, 10 glucose, 0.1 CaCl2, 10 HEPES (pH 7.4) with 0.5 mg/ml papain, and 1 mg/ml dithioerythritol added. After 10 minutes, arterial segments were placed in a second isolation solution containing 0.1 mM CaCl2 and a collagenase type F and hyaluronidase mixture (1 mg/ml each). Trituration was performed with a polished wide-bore pipette and the cells were stored on ice and used the same day. Whole cell ionic currents were measured using the perforated patch method in the presence or absence of 30 μM UTP. Recording electrodes (4-7 MΩ resistance) were pulled from borosilicate glass. Plated cells were voltage clamped and held at −60 mV for 15 minutes prior to experimentation; whole cell currents were monitored while voltage was slowly ramped (−120 to +20 mV, 0.167 mV/ms); currents were not leak subtracted. The bath solution contained (in mM): 120 NaCl, 1.2 MgCl2, 1.8 CaCl2, 10 HEPES (pH 7.4), and 10 glucose. The pipette solution contained (in mM): 120 CsCl, 3 MgCl2, 0.1 EGTA, 10 HEPES (pH 7.2), 10 glucose and 200 μg/ml amphotericin B. A series resistance of approximately 40 MΩ was accepted for all perforated patch clamp experiments. Membrane currents were filtered at 1 kHz, digitized at 5 kHz and stored in a personal computer system for subsequent analysis. pClamp 8.1 and Clampfit 8.1 (Axon Instruments) were used to record and analyze membrane currents. Cell capacitance was measured with the cancellation circuitry of the voltage-clamp amplifier (Axopatch 200A amplifier, Axon Instruments, Sunnyvale, Calif., USA). All current recordings were performed at room temperature (22° C.).

[2] = system: pressurized rat cerebral arteries; test: Arterial wall Ca2+ concentration measurement (FURA-2) in isolated arteries; assay type: cell-based; conditions: for change in arterial wall Ca2+: Ca2+ returned to superfusate in the presence of UTP and nimodipine
Description: Diameter and membrane potential recordings. […] In experiments using Ca^2+-free PSS, CaCl2 was omitted and 3 mM EGTA and 30 μM diltiazem added. In experiments with diacylglycerol induction, 300 μM of the diacylglycerol analogue OAG (1-oleyol-2-acetyl-sn-glycerol) was added. […] To verify endothelial cell removal the arteries were pressurized to 60 mmHg and allowed to develop myogenic tone prior to exposing the vessels to 1 μM UTP. […] Arterial diameter or membrane potential (Vm) of sense and anti-sense treated arteries was measured in the absence (control) or presence of UTP (concentration range: 0.1 to 10 μM). Membrane potential was measured by inserting a sharp glass electrode (≈100 MΩ resistance) containing 0.5M KCl into the vessel wall. […] Measurements were made using an electrometer (World Precision Instruments) and the data were recorded via computer using Axotape and Dataq software. Arterial diameter was measured using a video dimension analyzer (IonOptix Corporation; Milton, Mass.).
Ca^2+ concentration measurement in isolated arteries. Mounted arteries were equilibrated in 1.6 m M PSS for 40 minutes at 37° C. (pH 7.4) prior to loading the vascular smooth muscle cells with the Ca^2+-sensitive fluorescent dye, FURA-2. To load the cells, the 1.6 mM PSS was gradually replaced over 5 minutes with HEPES solution (25° C., pH 7.4). A total of 40 μL of a premixed 100 μM FURA-2-acetoxymethyl ester solution (100 μg FURA-2, 200 μL Pluronic acid, 800 μL DMSO) was added directly to the HEPES to give a final concentration of 2 μM FURA-2 AM. Loading continued in the dark at 25° C. (pH 7.4) for 40 minutes. At the end of the loading period, the HEPES was replaced with 1.6 mM PSS (35° C., pH 7.4) and 30 minutes was allowed for complete de-esterification of the FURA-2 AM before [Ca^2+]c measurements were made. FURA-2 fluorescence was measured using a photomultiplier system (IonOptix Corporation; Milton, Mass., USA) in which background-corrected ratios of the 510-nm emission from arteries alternatively excited at 340 and 380 nm were obtained at a sampling rate of 5 Hz.

[3] = system: glyceraldehyde dehydrogenase (GAPDH); test: Western analysis of GAPDH protein expression in cerebral artery; assay type: cell-based, rat; conditions: 3 days organ culture
Description: Western Analysis. Arterial segments were homogenized in lysis buffer (5 minutes, 4° C.) containing (in mM): 40 CAPS, 1 DL-Dithiothreitol (DTT), 10 EDTA, 15 MgCl2, 115 NaCl, 1 NaOrthovanadate, 1 NaF, 2.5 Urea, and 0.25% deoxychlorate, 10% glycerol, 1% NP-40, 0.2% SDS, and 1:50 mammalian protease inhibitor cocktail (Sigma, St. Louis, Mo., USA). Equal amounts of sample protein were separated on a 10% polyacrylamide gel and transferred to a nitrocellulose membrane. The membranes were exposed to a TRPC3 or TRPC6 polyclonal antibody (anti-rabbit 1:200 dilution, Alomone Labs, Jerusalem, Israel) and a […] (GAPDH) monoclonal antibody (anti-mouse, 1:1000 dilution, Chemicon Labs, Temecula, Calif., USA). Alexa-Fluor 680® goat anti-rabbit (Molecular Probes, Eugene, Oreg., USA) and IRDyeTM800 anti-mouse (Rockland Immunochemicals, Gilbertsville, Pa., USA) were used to fluorescently label the TRPC3 and GAPDH antibodies respectively. The density of signals specific for the TRPC3 and GAPDH bands in a given lane on a membrane were measured after scanning the membrane with an Odyssey® infared imaging system (Li-COR Biosciences, Lincoln, Nebr., USA). Quantified amounts were normalized to a total protein amount lane on the polyacrylamide gel.
Oligodeoxynucleotide Sequences and Reverse Permeabilization. […]

Substance	cells with UTP-activated whole cell current ([1]; voltage ramps −120 mV to 20 mV)	change in arterial wall Ca2+ [2]	effect on the expression of GAPDH [3]	SMCs in which the response to UTP was absent [1]	SMCs in which the response to UTP was greatly suppressed [1]	increase in arterial wall Ca2+ ([2]; 300 μM OAG)
5′-TATTCCAGTTCATGGTTCTC-3′ (SEQ ID: 7) and 5′-TGTCTGGTCGTGTTGGTCGT-3′ (SEQ ID: 8) (phosphorothioate ends, further chemistry not given here) [TRPC3 sense, sense control ODNs based on the rat TRPC3 gene; end bases phosphorothioated]	8 of 9	100 ± 22 nM				
5′-GAGAACCATGAACTGGAATA-3′ (SEQ ID: 9) and 5′-ACGACCAACACGACCAGACA-3′ (SEQ ID: 10) (phosphorothioate ends, further chemistry not given here) [TRPC3 antisense, antisense ODNs based on the rat TRPC3 gene; last five bases on the 5′ and 3′ end phosphorothioated]		50 ± 12 nM	no effect	3 of 5	2 of 5	6 ± 2 nM
